Consider 17 compounds from patent US10947252B2, “Inhibitors of KEAP1-Nrf2 protein-protein interaction” (Janssen Pharmaceutica NV, priority 2018, dated 2021).

pEC50, pKd: −log10 of the molar value.

In test [1] the target is Kelch domain of human KEAP1 (321-624 aa) (Homo sapiens (Human), UniProt Q14145). Put plainly: KEAP1 KELCH ThermoFluor binding assay.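 Further: Ligand-induced melting temperature shift of E. coli-expressed KEAP1 Kelch protein, Kd estimated from concentration-response curves of ΔTm.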 Particulars: KEAP Kelch […], 1,8-ANS, pH 7.0, average of results obtained, read-out: Tf Kd. (DSF heats the sample and reads unfolding from a dye or from intrinsic fluorescence.)
Chain of Kelch domain of human KEAP1 (321-624 aa) (Q14145 321-624): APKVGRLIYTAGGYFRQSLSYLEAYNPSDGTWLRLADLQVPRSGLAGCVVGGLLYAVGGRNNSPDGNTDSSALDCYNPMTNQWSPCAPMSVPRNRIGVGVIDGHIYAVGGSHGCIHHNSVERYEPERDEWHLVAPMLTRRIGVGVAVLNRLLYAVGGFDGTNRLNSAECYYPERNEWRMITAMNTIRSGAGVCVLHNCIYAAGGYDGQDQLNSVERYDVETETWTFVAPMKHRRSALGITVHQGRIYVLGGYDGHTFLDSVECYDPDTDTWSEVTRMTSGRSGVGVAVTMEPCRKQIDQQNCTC
For test [2], the system named is Glo-Response ARE-luc2P HEK293 cell line. The test is described as follows: ARE luciferase reporter cell-based assay.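 Further: luciferase signal tracks Nrf2 activation of the ARE once compounds disrupt KEAP1-Nrf2 binding, read with One-Glo reagent, DMSO serving as low control.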 The settings on record: Homo sapiens, HEK293, 24 h, average of results obtained. On the technique in general: In a reporter assay the amount or activity of a reporter protein is the signal.

Take `Cc1cnc2c(c1)S(=O)(=O)N(Cc1cc([C@@H](c3ccn4c(C(F)F)nnc4c3C)C(C)(C)C(=O)O)ccc1C)CC1(CCOCC1)O2` (single isomer, unassigned) [Example 576, (*S)-3-(3-(Difluoromethyl)-8-methyl-[1,2,4]triazolo[4,3-a]pyridin-7-yl)-2,2-dimethyl-3-(4-methyl-3-((8′-methyl-1′,1′-dioxido-2,3,5,6-tetrahydrospiro[pyran-4,4′-pyrido[2,3-b][1,4,5]oxathiazepin]-2′(3′H)-yl)methyl)phenyl)propanoic Acid]: the pKd (commonly the negative decadic logarithm of the Kd, by convention in mol/L) in test [1] was above 9.00. Besides, the pEC50 (commonly the negative decadic logarithm of the EC50, by convention in mol/L) in test [2] is 8.63.

Regarding `CCn1nnc2c(C)c([C@H](CC(=O)O)c3ccc(C)c(CN4C[C@@H]5CCCN5c5ncccc5S4(=O)=O)c3)ccc21` (single isomer, unassigned) [Example 157, (*R)-3-(3-(((S)-5,5-Dioxido-7a,8,9,10-tetrahydropyrido[2,3-f]pyrrolo[2,1-d][1,2,5]thiadiazepin-6(7H)-yl)methyl)-4-methylphenyl)-3-(1-ethyl-4-methyl-1H-benzo[d][1,2,3]triazol-5-yl)propanoic Acid], the pKd in test [1] was around 8.49. The pEC50 in test [2] was 7.21.

In the case of `Cc1ccc([C@@H](c2ccn3c(C(F)(F)F)nnc3c2C)C(C)(C)C(=O)O)nc1CN1CC2(CCOCC2)Oc2ncccc2S1(=O)=O` (single isomer, unassigned) [Example 38, (*S)-3-(6-((1′,1′-Dioxido-2,3,5,6-tetrahydrospiro[pyran-4,4′-pyrido[2,3-b][1,4,5]oxathiazepin]-2′(3′H)-yl)methyl)-5-methylpyridin-2-yl)-2,2-dimethyl-3-(8-methyl-3-(trifluoromethyl)-[1,2,4]triazolo[4,3-a]pyridin-7-yl)propanoic Acid], in test [1], the pKd was above 9.00. Besides, the pEC50 in test [2] was 8.14.

As for `Cc1ccc(C(CC(=O)O)c2ccn3c(C(F)(F)F)nnc3c2C)cc1CN1C[C@H]2CCCN2c2ncccc2S1(=O)=O` (stereo partly drawn) [Example 264, 3-(3-(((R)-5,5-Dioxido-7a,8,9,10-tetrahydropyrido[2,3-f]pyrrolo[2,1-d][1,2,5]thiadiazepin-6(7H)-yl)methyl)-4-methylphenyl)-3-(8-methyl-3-(trifluoromethyl)-[1,2,4]triazolo[4,3-a]pyridin-7-yl)propanoic Acid], the pKd in test [1] was above 9.00. In test [2], this compound gave a pEC50 of 7.74.

Take `CC[C@@H]1CN(Cc2cc(C(CC(=O)O)c3ccn4c(C(F)F)nnc4c3C)ccc2C)S(=O)(=O)c2cccnc2O1` (mixture of isomers) [Example 463, 3-(3-(Difluoromethyl)-8-methyl-[1,2,4]triazolo[4,3-a]pyridin-7-yl)-3-(3-(((R)-4-ethyl-1,1-dioxido-3,4-dihydro-2H-pyrido[2,3-b][1,4,5]oxathiazepin-2-yl)methyl)-4-methylphenyl)propanoic Acid]: the negative logarithm of the Kd (pKd) in test [1] is above 9.00. This compound also had a pEC50 in test [2] of 7.56.

As to `Cc1ccc([C@H](c2ccn3c(C(F)(F)F)nnc3c2C)C(C)(C)C(=O)O)cc1CN1CC2(CCOCC2)Oc2nc(OCCCO)ccc2S1(=O)=O` (single isomer, unassigned) [Example 51, (*R) 3-(3-((7′-(3-Hydroxypropoxy)-1′,1′-dioxido-2,3,5,6-tetrahydrospiro[pyran-4,4′-pyrido[2,3-b][1,4,5]oxathiazepin]-2′(3′H)-yl)methyl)-4-methylphenyl-2,2′-dimethyl-3-(8-methyl-3-trifluoromethyl)-[1,2,4]triazolo[4,3-a]pyridine-7-yl)propanoic Acid], in test [1], the pKd is 9.01. The negative-log EC50 (pEC50) in test [2] is 6.19.

With `Cc1ccc([C@H](CC(=O)O)c2ccn3c(C(F)(F)F)nnc3c2C)cc1CN1C[C@@H]2CCCN2c2ccccc2S1(=O)=O` (single isomer, unassigned) [Example 274, (*S)-3-(3-(((S)-5,5-Dioxido-7a,8,9,10-tetrahydrobenzo[f]pyrrolo[2,1-d][1,2,5]thiadiazepin-6(7H)-yl)methyl)-4-methylphenyl)-3-(8-methyl-3-(trifluoromethyl)-[1,2,4]triazolo[4,3-a]pyridin-7-yl)propanoic Acid], the pKd in test [1] is 8.92. Also, in test [2], the pEC50 is 7.29.

For `CCn1nnc2c(C)c(C(CC(=O)O)c3ccc(C)c(CN4C[C@@H]5CCCN5c5ncccc5S4(=O)=O)c3)ccc21` (mixture of isomers) [Example 155, (R/S)-3-(3-(((S)-5,5-Dioxido-7a,8,9,10-tetrahydropyrido[2,3-f]pyrrolo[2,1-d][1,2,5]thiadiazepin-6(7H)-yl)methyl)-4-methylphenyl)-3-(1-ethyl-4-methyl-1H-benzo[d][1,2,3]triazol-5-yl)propanoic Acid], the pKd in test [1] is above 9.00. This compound also gave a pEC50 in test [2] of 8.21.

For `Cc1cnc2c(c1)S(=O)(=O)N(Cc1cc([C@@H](c3ccc4c(nnn4C4CC4)c3C)C(C)(C)C(=O)O)ccc1C)CC1(CCNCC1)O2` (single isomer, unassigned) [Example 650, (*S)-3-(1-Cyclopropyl-4-methyl-1H-benzo[d][1,2,3]triazol-5-yl)-2,2-dimethyl-3-(4-methyl-3-((8′-methyl-1′,1′-dioxidospiro[piperidine-4,4′-pyrido[2,3-b][1,4,5]oxathiazepin]-2′(3′H)-yl)methyl)phenyl)propanoic Acid], the pKd in test [1] is above 9.00. The compound further gave a pEC50 in test [2] of 8.36.

Turning to `Cc1ccc([C@H](CC(=O)O)c2ccn3c(C(F)(F)F)nnc3c2C)nc1CN1C[C@@H]2CCCCN2c2ncc(C#N)cc2S1(=O)=O` (single isomer, unassigned) [Example 37, (*R)-3-(6-(((*S)-3-Cyano-5,5-dioxido-7,7a,8,9,10,11-hexahydro-6H-dipyrido[2,1-d:2′,3′-f][1,2,5]thiadiazepin-6-yl)methyl)-5-methylpyridin-2-yl)-3-(8-methyl-3-(trifluoromethyl)-[1,2,4]triazolo[4,3-a]pyridin-7-yl)propanoic Acid], the pKd in test [1] was above 9.00. In test [2], this compound showed a pEC50 of 7.59.

`Cc1cnc2c(c1)S(=O)(=O)N(Cc1cc([C@H](c3ccn4c(C(F)(F)F)nnc4c3C)C(C)(C)C(=O)O)ccc1C)CC1(CNC1)O2` (single isomer, unassigned) [Example 343, (*R)-2,2-Dimethyl-3-(4-methyl-3-((8′-methyl-1′,1′-dioxidospiro[azetidine-3,4′-pyrido[2,3-b][1,4,5]oxathiazepin]-2′(3′H)-yl)methyl)phenyl)-3-(8-methyl-3-(trifluoromethyl)-[1,2,4]triazolo[4,3-a]pyridin-7-yl)propanoic Acid]: in test [1], the pKd was 4.49. This compound also showed a pEC50 in test [2] of 5.80.

Regarding `Cc1cc2cc([C@@H](CC(=O)O)c3ccc(C)c(CN4C[C@@H]5CCCCN5c5ncccc5S4(=O)=O)c3)n(C)c2nn1` (single isomer, unassigned) [Example 441, (*S)-3-(3,7-Dimethyl-7H-pyrrolo[2,3-c]pyridazin-6-yl)-3-(3-(((*S)-5,5-dioxido-7,7a,8,9,10,11-hexahydro-6H-dipyrido[2,1-d:2′,3′-f][1,2,5]thiadiazepin-6-yl)methyl)-4-methylphenyl)propanoic Acid], the pKd in test [1] is 7.22. Also, in test [2], the pEC50 is below 4.70.

Turning to `Cc1ccc([C@H](c2ccn3c(C(F)(F)F)nnc3c2C)C(C)(C)C(=O)O)cc1CN1CC2(CCNCC2)Oc2ncccc2S1(=O)=O` (single isomer, unassigned) [Example 337, (*R)-3-(3-((1′,1′-Dioxidospiro[piperidine-4,4′-pyrido[2,3-b][1,4,5]oxathiazepin]-2′(3′H)-yl)methyl)-4-methylphenyl)-2,2-dimethyl-3-(8-methyl-3-(trifluoromethyl)-[1,2,4]triazolo[4,3-a]pyridin-7-yl)propanoic Acid], the negative logarithm of the Kd (pKd) in test [1] was below 5.00. In test [2], this compound gave a pEC50 below 7.70.

In the case of `Cc1ccc([C@@H](c2ccn3c(C(F)(F)F)nnc3c2C)C(C)(C)C(=O)O)cc1CN1CC2(CCOCC2)Oc2nc(OCCN3CCCCC3)c(C)cc2S1(=O)=O` (single isomer, unassigned) [Example 126, 2,2-Dimethyl-3-(4-methyl-3-((8′-methyl-1′,1′-dioxido3-(3-((7′-(((*S)-4-hydroxybutan-2-yl)amino)-8′-methyl-1′,1′-dioxido-7′-(2-(piperidin-1-yl)ethoxy)-2,3,5,6-tetrahydrospiro[pyran-4,4′-pyrido[2,3-b][1,4,5]oxathiazepin]-2′(3′H)-yl)methyl)phenyl)-3-(8-methyl-3-(trifluoromethyl)-[1,2,4]triazolo[4,3-a]pyridine-7-yl)propanoic Acid], in test [1], the pKd is above 9.00. In test [2], this compound showed a pEC50 of 8.22.

In the case of `Cc1cnc2c(c1)S(=O)(=O)N(Cc1cc([C@@H](c3ccn4c(C(F)(F)F)nnc4c3C)C(C)(C)C(=O)O)ccc1C)CC1(CC1)O2` (single isomer, unassigned) [Example 314, (*S)-2,2-Dimethyl-3-(4-methyl-3-((8′-methyl-1′,1′-dioxidospiro[cyclopropane-1,4′-pyrido[2,3-b][1,4,5]oxathiazepin]-2′(3′H)-yl)methyl)phenyl)-3-(8-methyl-3-(trifluoromethyl)-[1,2,4]triazolo[4,3-a]pyridin-7-yl)propanoic Acid], the pKd in test [1] was above 9.00. Moreover, the pEC50 in test [2] is 9.00.

Regarding `Cc1ccc(C(CC(=O)O)c2ccc3c(nnn3CC3CC3)c2C)cc1CN1CC2(COC2)Oc2ncccc2S1(=O)=O` (stereo not shown) [Example 67], in test [1], the pKd is 9.47. In test [2], this compound had a negative logarithm of the EC50 (pEC50) of 7.64.

Take `Cc1ccc([C@H](c2ccn3c(C(F)(F)F)nnc3c2C)C(C)(C)C(=O)O)cc1CN1C[C@H]2CCCCN2c2ncc(C#N)cc2S1(=O)=O` (single isomer, unassigned) [Example 423, (*R)-3-(3-(((*R)-3-cyano-5,5-dioxido-7,7a,8,9,10,11-hexahydro-6H-dipyrido[2,1-d:2′,3′-f][1,2,5]thiadiazepin-6-yl)methyl)-4-methylphenyl)-2,2-dimethyl-3-(8-methyl-3-(trifluoromethyl)-[1,2,4]triazolo[4,3-a]pyridin-7-yl)propanoic Acid]: in test [1], the pKd was 6.23. In test [2], the pEC50 is 6.39.
